Data from patent US4921855A, “New Histidyl amino acid derivatives, and pharmaceutical composition comprising the same” (Fujisawa Pharmaceutical Co., Ltd., priority 1987, dated 1990).

Tests used:
[1] = test system: plasma renin; test: Inhibition of plasma renin activity (PRA) after oral administration to sodium-depleted cynomolgus monkeys; assay type: in vivo, cynomolgus monkeys (Macaca fascicularis); conditions: sodium-depleted conscious monkeys, 0-6 hours
Experimental: (§1) Male or female cynomolgus monkeys (Macaca fascicularis) weighing about 2.5-3.5 kg were used. Sodium depletion was achieved by administering furosemide, 15 mg/kg subcutaneously one day before and then 10 mg/kg intravenously 30 minutes before the administration of the test compound.
(§2) Test compounds were dissolved in diluted equimolar hydrochloric acid (pH 5-6) and orally administered to conscious and trained monkeys placed in restraining chairs with pneumatic cuff positioned around the arm for oscillometric measurement of mean arterial blood pressure (MAP) (Model BP-203 NPJ, manufactured by Nippon Colin).
Blood samples were collected at 0, 0.5, 1, 2, 4 and 6 hours after dosing from the antecubital vein of the monkey into disodium salt of EDTA coated tubes, centrifuged for 10 min. (3000 rpm, 4° C.) and plasma was obtained for determination of plasma renin activity (PRA). PRA was measured as the rate of Ang I formation with the same principle as illustrated in Test 1. 100 μl of sample plasma was mixed with 100 μl of the solution of angiotensinase inhibitors (3 mM 8-hydroxyquinoline sulfate and 5 mM 2,3-dimercaptopropanol, SB-REN-1, SORIN BIOMEDICA, Italy). Half (100 μl) of the mixture was incubated at 37° C. for one hour and Ang I formed was determined by a commercial RIA kit (DINABOTT). The remaining half (100 μl) of the reaction mixture was kept at 4° C. for one hour to measure and correct for the preexisting Ang I in the plasma. Percentage inhibition of PRA was calculated by the following formula: [formula]
A37 : the amount of angiotensin I formed by incubation at 37° C. of plasma collected before dosing the test compound
A4 : the amount of angiotensin I formed by keeping at 4° C. of plasma collected before dosing the test compound
D37 : the amount of angiotensin I formed by incubation at 37° C. of plasma collected after dosing the test compound
D4 : the amount of angiotensin I formed by keeping at 4° C. of plasma collected after dosing the test compound.

[2] = test system: mean arterial blood pressure (MAP); test: Hypotensive effect after oral administration to conscious sodium-depleted cynomolgus monkeys (maximum percentage fall of MAP); assay type: in vivo, cynomolgus monkeys (Macaca fascicularis); conditions: 0-6 hours
Experimental: as §1, §2
The Map was measured at 0 (predosing base line), 0.5, 1, 2, 3, 4 and 6 hours after administration of the test compound. The maximum hypotensive effect was calculated as the maximum percentage fall of MAP from the pretreatment value.

[3] = molecular target: T1, renin (Homo sapiens, UniProt P00797); test: Inhibition of human plasma renin activity (angiotensin I formation, RIA); assay type: biochemical; conditions: endogenous renin and angiotensinogen, pH 6.0, 37° C, 90 minutes, RIA of Ang I
T1 construct: endogenous renin and angiotensinogen in plasma; from tissue; host or cells: pooled human plasma (EDTA) from male volunteers
T1 sequence (P00797 67-406): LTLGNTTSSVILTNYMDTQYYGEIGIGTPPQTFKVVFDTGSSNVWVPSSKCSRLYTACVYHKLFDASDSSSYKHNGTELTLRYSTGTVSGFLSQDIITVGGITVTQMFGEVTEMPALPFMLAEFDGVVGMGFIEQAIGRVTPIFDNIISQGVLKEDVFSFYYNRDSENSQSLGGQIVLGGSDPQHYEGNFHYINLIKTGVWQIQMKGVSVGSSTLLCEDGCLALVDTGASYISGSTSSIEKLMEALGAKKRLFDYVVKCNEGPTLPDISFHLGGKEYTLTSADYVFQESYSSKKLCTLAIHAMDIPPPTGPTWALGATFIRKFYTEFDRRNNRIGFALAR
Experimental: Human plasma was collected from male volunteers pretreated with no drugs and used as a pool. Disodium salt of ethylenediaminetetraacetic acid (EDTA) was used as the anticoagulant. Plasma renin activity was measured as the rate of angiotensin I (Ang I) formation after incubation (37° C) of the endogenous renin and angiotensinogen in plasma at pH 6.0. The incubation mixture contained 250 μl of plasma, 5 μl of (phenylmethyl)sulfonyl fluoride, 30 μl of buffer (sodium, potassium-phosphate, pH 6.0), and 15 μl of an appropriate concentration of test compound in 50% ethyl alcohol-water vehicle. The Ang I formed after 90 minutes of incubation was measured by radioimmunoassay (RIA) which was carried out with a commercial kit, RENCTK 100 (manufactured by Commissariat A L'energic Atomique). Samples were incubated in duplicate and each tube was measured in duplicate in the RIA. Percentage inhibition of plasma renin activity was calculated by comparing the amount of Ang I produced with and without a test compound. The concentration of test compound that inhibited plasma renin activity by 50% (IC50) was determined by Probit method.

| SMILES | Maximum inhibition of PRA (%) ([1]; 32 mg/kg (po)) | Maximum hypotensive effect (%) ([2]; 32 mg/kg (po)) | IC50 [3] [nM] | Maximum inhibition of PRA (%) ([1]; 3.2 mg/kg (po)) | Maximum hypotensive effect (%) ([2]; 3.2 mg/kg (po)) |
| --- | --- | --- | --- | --- | --- |
| CC(C)CC[C@H](O)[C@H](CC1CCCCC1)NC(=O)[C@H](Cc1c[nH]cn1)N(C)C(=O)[C@H](Cc1ccccc1)OC(=O)N(C)CCC(=O)N1CCOCC1 [(5)] | 92 | 18 | 25 | – | – |
| CC(C)CC[C@H](O)[C@H](CC1CCCCC1)NC(=O)[C@H](Cc1c[nH]cn1)N(C)C(=O)[C@H](Cc1ccccc1)OC(=O)N(C)CCN(C)C(=O)N1CCOCC1 [(23)] | – | – | 4 | 99 | 19 |
| CC(C)CC[C@H](O)[C@H](CC1CCCCC1)NC(=O)[C@H](Cc1c[nH]cn1)N(C)C(=O)[C@H](Cc1ccccc1)OC(=O)N(C)CCN(C)C(=O)C(C)C [(24)] | – | – | 8.7 | 93 | 15 |
